Reference: patent publication US7792665B2, “Method for designing a compound based on the three dimensional structure of phosphoinositide dependent protein kinase 1 (PDK1)” (Medical Research Council, priority 2002, dated 2010)
Values joined by “and” are separate entries in the source; they are usually repeats but may differ in a detail not shown here. Identical values can stand only once. Where no end group is shown, it is not given here. [ ]: non-standard residue; d: D form. pT = C[C@@H](OP(=O)(O)O)[C@H](N)C(=O)O

Assays:
[1] = target: CSK (Homo sapiens, UniProt P41240); assay: Kinase panel assay, CSK; type: biochemical; conditions: 1 μM inhibitor, 0.1 mM ATP, average of triplicate
[2] = target: SAPK2α/p38 (Homo sapiens, UniProt Q16539); assay: Kinase panel assay, SAPK2α/p38; type: biochemical; conditions: 1 μM inhibitor, 0.1 mM ATP, average of triplicate
[3] = target: T1, CHK1 (Homo sapiens, UniProt O14757); assay: Kinase panel assay, CHK1; type: biochemical; conditions: 1 μM inhibitor, 0.1 mM ATP, average of triplicate
T1 sequence (O14757 1-476): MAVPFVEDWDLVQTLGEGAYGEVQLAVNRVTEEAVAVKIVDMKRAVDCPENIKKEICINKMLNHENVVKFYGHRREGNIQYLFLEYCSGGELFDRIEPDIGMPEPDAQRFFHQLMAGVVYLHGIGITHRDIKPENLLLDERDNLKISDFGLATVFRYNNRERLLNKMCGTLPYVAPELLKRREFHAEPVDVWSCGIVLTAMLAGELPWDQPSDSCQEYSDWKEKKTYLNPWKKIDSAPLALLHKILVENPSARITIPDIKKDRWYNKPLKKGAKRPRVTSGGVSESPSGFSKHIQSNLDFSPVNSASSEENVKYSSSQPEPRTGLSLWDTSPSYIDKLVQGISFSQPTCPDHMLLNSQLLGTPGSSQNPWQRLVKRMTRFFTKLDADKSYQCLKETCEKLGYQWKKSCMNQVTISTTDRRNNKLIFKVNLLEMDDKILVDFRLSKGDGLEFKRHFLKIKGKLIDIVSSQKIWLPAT

[4] = target: JNKSAPK1c (Homo sapiens, UniProt P45983); assay: Kinase panel assay, JNKSAPK1c; type: biochemical; conditions: 1 μM inhibitor, 0.1 mM ATP, average of triplicate
[5] = target: MKK1 (Homo sapiens, UniProt Q02750); assay: Kinase panel assay, MKK1; type: biochemical; conditions: 1 μM inhibitor, 0.1 mM ATP, average of triplicate
MKK1, sequence (Q02750 whole entry, species assumed): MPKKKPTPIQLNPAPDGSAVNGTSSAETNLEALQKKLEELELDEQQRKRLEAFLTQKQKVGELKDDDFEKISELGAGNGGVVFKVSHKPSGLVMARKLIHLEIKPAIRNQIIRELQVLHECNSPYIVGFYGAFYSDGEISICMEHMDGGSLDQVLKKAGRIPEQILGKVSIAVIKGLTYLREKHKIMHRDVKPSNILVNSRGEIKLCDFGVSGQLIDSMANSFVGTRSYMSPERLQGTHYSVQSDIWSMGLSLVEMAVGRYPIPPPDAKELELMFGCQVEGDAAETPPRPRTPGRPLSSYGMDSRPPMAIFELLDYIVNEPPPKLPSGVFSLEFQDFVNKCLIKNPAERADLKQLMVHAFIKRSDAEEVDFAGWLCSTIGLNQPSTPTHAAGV

[6] = target: ROCK-II (Homo sapiens, UniProt O75116); assay: Kinase panel assay, ROCK-II; type: biochemical; conditions: 1 μM inhibitor, 0.1 mM ATP, average of triplicate
ROCK-II, sequence (O75116 whole entry, species assumed): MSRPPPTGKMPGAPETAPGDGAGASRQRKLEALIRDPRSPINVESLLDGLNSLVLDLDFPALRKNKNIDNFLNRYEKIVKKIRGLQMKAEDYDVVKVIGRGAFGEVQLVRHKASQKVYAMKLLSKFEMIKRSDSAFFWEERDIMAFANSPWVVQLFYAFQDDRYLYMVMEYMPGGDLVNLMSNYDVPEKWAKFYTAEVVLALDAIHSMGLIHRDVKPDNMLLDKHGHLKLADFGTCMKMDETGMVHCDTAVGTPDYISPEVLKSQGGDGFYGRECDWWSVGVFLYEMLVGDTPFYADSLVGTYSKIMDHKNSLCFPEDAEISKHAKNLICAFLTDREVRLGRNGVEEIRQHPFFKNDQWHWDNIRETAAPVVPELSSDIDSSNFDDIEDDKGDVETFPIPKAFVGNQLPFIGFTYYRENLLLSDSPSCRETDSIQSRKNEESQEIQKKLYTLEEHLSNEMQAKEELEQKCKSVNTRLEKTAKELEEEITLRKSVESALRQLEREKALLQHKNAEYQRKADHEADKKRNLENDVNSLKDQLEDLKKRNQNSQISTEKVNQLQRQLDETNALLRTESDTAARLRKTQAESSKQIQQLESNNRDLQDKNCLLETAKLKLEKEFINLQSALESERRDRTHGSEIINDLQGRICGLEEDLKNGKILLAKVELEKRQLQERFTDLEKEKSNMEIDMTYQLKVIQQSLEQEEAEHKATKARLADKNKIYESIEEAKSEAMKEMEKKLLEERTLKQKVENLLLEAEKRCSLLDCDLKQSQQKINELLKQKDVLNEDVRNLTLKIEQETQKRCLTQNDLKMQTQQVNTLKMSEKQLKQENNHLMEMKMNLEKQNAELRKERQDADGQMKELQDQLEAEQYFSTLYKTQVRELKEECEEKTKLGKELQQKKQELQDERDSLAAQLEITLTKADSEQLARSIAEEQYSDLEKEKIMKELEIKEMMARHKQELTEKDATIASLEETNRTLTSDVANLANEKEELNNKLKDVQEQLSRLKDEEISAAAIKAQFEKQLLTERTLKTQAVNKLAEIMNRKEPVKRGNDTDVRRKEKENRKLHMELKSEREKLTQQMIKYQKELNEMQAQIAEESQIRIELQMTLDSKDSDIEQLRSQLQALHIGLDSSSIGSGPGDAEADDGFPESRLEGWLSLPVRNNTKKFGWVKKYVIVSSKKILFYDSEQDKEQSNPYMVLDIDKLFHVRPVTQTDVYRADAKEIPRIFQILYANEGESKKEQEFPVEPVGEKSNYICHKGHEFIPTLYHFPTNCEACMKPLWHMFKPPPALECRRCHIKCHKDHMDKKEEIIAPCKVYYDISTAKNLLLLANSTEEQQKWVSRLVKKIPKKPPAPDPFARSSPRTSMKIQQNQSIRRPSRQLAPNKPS

[7] = target: SAPK4/p38δ (Homo sapiens, UniProt O15264); assay: Kinase panel assay, SAPK4/p38δ; type: biochemical; conditions: 1 μM inhibitor, 0.1 mM ATP, average of triplicate
[8] = target: MSK1 (Homo sapiens, UniProt O75582); assay: Kinase panel assay, MSK1; type: biochemical; conditions: 1 μM inhibitor, 0.1 mM ATP, average of triplicate
MSK1, sequence (O75582 whole entry): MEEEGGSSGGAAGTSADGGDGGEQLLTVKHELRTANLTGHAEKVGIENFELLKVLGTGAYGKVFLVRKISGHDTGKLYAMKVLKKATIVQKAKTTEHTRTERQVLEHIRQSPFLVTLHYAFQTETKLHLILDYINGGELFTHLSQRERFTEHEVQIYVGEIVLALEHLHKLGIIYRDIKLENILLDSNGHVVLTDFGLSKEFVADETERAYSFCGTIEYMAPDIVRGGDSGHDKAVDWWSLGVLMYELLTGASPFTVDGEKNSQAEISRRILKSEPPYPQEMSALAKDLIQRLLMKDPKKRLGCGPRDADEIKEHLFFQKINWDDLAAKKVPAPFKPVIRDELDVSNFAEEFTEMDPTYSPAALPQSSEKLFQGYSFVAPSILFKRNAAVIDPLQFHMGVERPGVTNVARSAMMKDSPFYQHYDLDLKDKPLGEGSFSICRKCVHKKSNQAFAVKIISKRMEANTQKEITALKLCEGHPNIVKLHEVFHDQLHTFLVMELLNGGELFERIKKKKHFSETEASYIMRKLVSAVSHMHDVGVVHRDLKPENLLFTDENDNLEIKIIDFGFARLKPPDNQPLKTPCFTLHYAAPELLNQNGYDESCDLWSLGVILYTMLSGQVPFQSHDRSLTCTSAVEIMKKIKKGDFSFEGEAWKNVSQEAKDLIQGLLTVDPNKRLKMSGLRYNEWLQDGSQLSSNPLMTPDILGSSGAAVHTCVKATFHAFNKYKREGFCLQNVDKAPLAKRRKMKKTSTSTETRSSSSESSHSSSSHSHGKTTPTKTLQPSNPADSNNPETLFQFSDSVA

[9] = target: PRAK (Homo sapiens, UniProt Q8IW41); assay: Kinase panel assay, PRAK; type: biochemical; conditions: 1 μM inhibitor, 0.1 mM ATP, average of triplicate
PRAK, sequence (Q8IW41 whole entry, species assumed): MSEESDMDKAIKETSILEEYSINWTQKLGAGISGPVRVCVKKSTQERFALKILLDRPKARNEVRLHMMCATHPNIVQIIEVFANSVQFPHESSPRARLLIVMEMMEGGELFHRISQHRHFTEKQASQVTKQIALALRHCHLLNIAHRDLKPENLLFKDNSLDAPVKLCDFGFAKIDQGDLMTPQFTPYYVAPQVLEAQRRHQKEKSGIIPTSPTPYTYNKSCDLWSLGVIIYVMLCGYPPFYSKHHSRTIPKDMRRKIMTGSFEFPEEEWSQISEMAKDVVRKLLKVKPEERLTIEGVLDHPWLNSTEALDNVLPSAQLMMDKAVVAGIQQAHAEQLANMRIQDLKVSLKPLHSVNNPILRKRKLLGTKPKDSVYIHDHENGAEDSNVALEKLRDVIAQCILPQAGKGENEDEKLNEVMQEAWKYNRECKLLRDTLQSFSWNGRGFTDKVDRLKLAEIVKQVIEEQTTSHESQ

[10] = target: SGK1 (Homo sapiens, UniProt O00141); assay: Kinase panel assay, SGK1; type: biochemical; conditions: 1 μM inhibitor, 0.1 mM ATP, average of triplicate
SGK1, sequence (O00141 whole entry): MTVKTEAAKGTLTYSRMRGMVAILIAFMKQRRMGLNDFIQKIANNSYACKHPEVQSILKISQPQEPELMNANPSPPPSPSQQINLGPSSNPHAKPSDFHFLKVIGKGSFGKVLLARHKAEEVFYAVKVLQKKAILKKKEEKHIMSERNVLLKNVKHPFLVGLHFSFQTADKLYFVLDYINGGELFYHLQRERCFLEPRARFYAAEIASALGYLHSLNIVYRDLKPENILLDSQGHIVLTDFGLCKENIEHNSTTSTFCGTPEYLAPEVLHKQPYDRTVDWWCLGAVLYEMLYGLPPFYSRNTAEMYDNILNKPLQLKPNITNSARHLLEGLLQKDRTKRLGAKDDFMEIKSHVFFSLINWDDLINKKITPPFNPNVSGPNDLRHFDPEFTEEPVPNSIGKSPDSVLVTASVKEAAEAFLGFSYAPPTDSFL

[11] = target: NEK6 (Homo sapiens, UniProt Q9HC98); assay: Kinase panel assay, NEK6; type: biochemical; conditions: 1 μM inhibitor, 0.1 mM ATP, average of triplicate
[12] = target: MAPKAP-K1a (Homo sapiens, UniProt Q15418); assay: Kinase panel assay, MAPKAP-K1a; type: biochemical; conditions: 1 μM inhibitor, 0.1 mM ATP, average of triplicate
MAPKAP-K1a, sequence (Q15418 whole entry, species assumed): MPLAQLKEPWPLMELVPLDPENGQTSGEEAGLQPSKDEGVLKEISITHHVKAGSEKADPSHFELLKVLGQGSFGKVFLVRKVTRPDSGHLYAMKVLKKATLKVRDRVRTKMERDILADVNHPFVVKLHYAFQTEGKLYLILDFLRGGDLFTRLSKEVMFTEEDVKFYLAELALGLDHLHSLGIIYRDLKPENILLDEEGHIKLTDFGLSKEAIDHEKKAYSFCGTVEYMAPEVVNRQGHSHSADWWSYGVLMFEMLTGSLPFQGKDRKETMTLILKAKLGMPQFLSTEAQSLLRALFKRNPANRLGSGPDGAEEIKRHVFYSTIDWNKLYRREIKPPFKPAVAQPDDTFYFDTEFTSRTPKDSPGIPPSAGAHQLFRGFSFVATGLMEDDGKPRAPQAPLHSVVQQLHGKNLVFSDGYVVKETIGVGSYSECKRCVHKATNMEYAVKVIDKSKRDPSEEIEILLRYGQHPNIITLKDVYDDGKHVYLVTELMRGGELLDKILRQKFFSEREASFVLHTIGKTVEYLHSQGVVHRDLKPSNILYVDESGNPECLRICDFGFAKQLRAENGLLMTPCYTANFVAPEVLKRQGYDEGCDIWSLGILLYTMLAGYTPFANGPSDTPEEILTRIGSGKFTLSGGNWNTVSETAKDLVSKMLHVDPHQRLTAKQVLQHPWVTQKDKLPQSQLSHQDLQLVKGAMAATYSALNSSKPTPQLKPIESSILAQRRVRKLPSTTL

[13] = target: PKBΔPH (Homo sapiens, UniProt P31749); assay: biochemical; conditions: read-out: percentage of kinase activity compared to control incubations, PKBΔPH
PKBΔPH, sequence (P31749 118-480 limits assumed, stated change not applied): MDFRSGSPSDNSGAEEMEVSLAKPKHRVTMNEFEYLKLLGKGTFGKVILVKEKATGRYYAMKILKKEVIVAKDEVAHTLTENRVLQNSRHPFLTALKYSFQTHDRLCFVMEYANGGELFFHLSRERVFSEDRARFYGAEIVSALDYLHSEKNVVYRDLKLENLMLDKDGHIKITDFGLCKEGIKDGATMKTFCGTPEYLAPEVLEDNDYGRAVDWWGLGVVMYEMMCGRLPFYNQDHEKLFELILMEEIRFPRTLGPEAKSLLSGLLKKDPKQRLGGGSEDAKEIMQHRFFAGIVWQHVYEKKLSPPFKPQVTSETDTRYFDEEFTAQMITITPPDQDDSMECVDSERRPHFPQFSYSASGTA
Description: (§1) Other protein kinases employed in Table 5, were assayed as described previously.

[14] = target: SAPK2β/p38β2 (Homo sapiens, UniProt Q15759); assay: Kinase panel assay, SAPK2β/p38β2; type: biochemical; conditions: 1 μM inhibitor, 0.1 mM ATP, average of triplicate
SAPK2β/p38β2, sequence (Q15759 whole entry): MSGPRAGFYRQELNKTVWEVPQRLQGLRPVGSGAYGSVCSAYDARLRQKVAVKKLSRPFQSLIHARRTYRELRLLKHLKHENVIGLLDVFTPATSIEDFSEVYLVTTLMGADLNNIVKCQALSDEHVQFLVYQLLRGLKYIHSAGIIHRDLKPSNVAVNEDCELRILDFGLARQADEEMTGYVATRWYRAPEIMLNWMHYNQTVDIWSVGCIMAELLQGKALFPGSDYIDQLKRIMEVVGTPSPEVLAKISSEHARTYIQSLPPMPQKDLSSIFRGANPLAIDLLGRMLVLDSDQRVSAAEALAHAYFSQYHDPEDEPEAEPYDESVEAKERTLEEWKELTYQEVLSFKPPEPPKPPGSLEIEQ

[15] = system: AMPK; assay: Kinase panel assay, AMPK; type: biochemical; conditions: 1 μM inhibitor, 0.1 mM ATP, average of triplicate
Description: as §1

[16] = target: CK2 (Homo sapiens, UniProt P68400); assay: Kinase panel assay, CK2; type: biochemical; conditions: 1 μM inhibitor, 0.1 mM ATP, average of triplicate
[17] = system: CK1; assay: Kinase panel assay, CK1; type: biochemical; conditions: 1 μM inhibitor, 0.1 mM ATP, average of triplicate
[18] = target: T2, PDK1 (Homo sapiens, UniProt O15530); assay: PDK1 protein kinase assay with PDK1tide substrate and [γ-32P]ATP; type: biochemical; conditions: 1 μM inhibitor, 0.1 mM ATP, average of triplicate
T2 sequence (O15530 1-556): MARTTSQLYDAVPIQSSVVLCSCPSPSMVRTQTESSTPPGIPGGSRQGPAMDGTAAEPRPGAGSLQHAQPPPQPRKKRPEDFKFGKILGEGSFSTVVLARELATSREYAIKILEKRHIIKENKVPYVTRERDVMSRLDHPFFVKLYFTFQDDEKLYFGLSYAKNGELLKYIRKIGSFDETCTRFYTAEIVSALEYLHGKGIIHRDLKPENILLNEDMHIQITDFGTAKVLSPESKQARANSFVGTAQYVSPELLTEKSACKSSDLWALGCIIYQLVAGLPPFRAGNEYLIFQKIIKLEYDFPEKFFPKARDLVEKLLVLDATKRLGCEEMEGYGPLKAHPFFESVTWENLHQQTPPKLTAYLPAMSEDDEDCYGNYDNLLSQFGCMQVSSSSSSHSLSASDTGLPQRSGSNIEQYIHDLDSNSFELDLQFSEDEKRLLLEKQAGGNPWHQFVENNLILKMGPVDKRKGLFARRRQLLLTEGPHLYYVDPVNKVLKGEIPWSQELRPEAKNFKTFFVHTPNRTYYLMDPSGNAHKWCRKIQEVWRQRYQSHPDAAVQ
Description: as §1
A structure-based sequence alignment of known kinase structures was obtained from, which was used to validate the sequence-based sequence alignment (Table 5).

[19] = target: T3, wild type PDK1 fused through its N-terminus to glutathione S-transferase (GST-PDK1) (human, UniProt O15530 1-556); assay: cell-based or functional assay
T3 sequence: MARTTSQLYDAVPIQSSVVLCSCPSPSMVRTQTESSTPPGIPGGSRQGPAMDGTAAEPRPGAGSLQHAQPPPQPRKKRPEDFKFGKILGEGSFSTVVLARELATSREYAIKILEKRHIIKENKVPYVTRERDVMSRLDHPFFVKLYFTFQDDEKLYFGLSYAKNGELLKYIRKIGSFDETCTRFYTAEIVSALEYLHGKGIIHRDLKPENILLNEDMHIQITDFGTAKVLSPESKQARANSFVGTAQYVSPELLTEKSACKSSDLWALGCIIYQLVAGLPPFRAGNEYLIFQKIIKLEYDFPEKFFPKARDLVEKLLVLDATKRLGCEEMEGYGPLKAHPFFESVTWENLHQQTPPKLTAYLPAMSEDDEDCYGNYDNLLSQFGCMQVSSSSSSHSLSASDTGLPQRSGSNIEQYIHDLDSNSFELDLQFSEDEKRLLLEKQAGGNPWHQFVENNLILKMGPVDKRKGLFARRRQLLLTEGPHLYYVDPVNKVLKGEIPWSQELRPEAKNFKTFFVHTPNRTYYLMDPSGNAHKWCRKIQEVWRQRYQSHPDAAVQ

[20] = target: GST-PDK1[K76A] (human), O15530; assay: cell-based or functional assay
[21] = target: GST-PDK1[Q150A] (human), O15530; assay: cell-based or functional assay

CN[C@@H]1C[C@H]2O[C@@](C)([C@@H]1OC)n1c3ccccc3c3c4c(c5c6ccccc6n2c5c31)C(=O)NC4 [STO, staurosporine]
percentage of kinase activity compared to control incubations, CSK [1]: 25 ± 8%
percentage of kinase activity compared to control incubations, SAPK2α/p38 [2]: 76 ± 4%
percentage of kinase activity compared to control incubations, CHK1 [3]: 3 ± 1%
percentage of kinase activity compared to control incubations, JNKSAPK1c [4]: 91 ± 3%
percentage of kinase activity compared to control incubations, MKK1 [5]: 5 ± 8%
percentage of kinase activity compared to control incubations, ROCK-II [6]: 9 ± 5%
percentage of kinase activity compared to control incubations, SAPK4/p38δ [7]: 40 ± 5%
percentage of kinase activity compared to control incubations, MSK1 [8]: 1 ± 0%
percentage of kinase activity compared to control incubations, MSK1 ([8]; listed as staurosporine): abolished
percentage of kinase activity compared to control incubations, PRAK [9]: 48 ± 1%
percentage of kinase activity compared to control incubations, SGK1 [10]: 51 ± 4%
percentage of kinase activity compared to control incubations, NEK6 [11]: 109 ± 2%
percentage of kinase activity compared to control incubations, MAPKAP-K1a [12]: 18 ± 10%
remaining activity at 1 µM [13]: 8 ± 2%
percentage of kinase activity compared to control incubations, SAPK2β/p38β2 [14]: 84 ± 11%
percentage of kinase activity compared to control incubations, AMPK [15]: 0 ± 0%
percentage of kinase activity compared to control incubations, CK2 [16]: 95 ± 4%
percentage of kinase activity compared to control incubations, CK1 [17]: 95 ± 11%
percentage of kinase activity compared to control incubations, PDK1 [18]: 5 ± 1%

SESANQVFLGF[pT]YVAPSV (not fully specified; printed as SESANQVFLGFT*YVAPSV) [S6K-pHM, phosphopeptide comprising the hydrophobic motif of S6K1]
maximal activation of PDK1 activity towards T308tide [19]: 5 fold
concentration of S6K-pHM for half maximal activation, against wild type PDK1 (fold higher than wild type PDK1) [20]: 3
activation of PDK1 activity towards T308tide [21]: 2 fold and 3 fold
